Test results reported in publication PMC6426458 (Science Advances, 2019).

Assays:
[1] = biological target: T1, RelMtb (truncated, residues 53 to 446) (Mycobacterium tuberculosis, UniProt P9WHG9); assay: RelMtb enzymatic fluorescence polarization; type: biochemical
T1 sequence (P9WHG9 1-394): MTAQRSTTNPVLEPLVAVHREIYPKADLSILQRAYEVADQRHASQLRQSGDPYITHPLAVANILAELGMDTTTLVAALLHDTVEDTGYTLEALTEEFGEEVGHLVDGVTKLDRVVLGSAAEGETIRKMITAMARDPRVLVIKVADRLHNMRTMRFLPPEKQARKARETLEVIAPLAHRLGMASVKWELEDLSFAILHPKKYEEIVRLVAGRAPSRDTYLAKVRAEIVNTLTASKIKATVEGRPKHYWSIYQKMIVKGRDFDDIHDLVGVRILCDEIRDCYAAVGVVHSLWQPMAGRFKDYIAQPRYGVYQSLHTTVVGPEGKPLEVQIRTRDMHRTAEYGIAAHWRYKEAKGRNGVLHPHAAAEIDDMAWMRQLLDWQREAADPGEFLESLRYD

[2] = tested on: WT H37Rv; set-up: species or system Mycobacterium tuberculosis; settings: in vivo
[3] = tested on: Δrel; set-up: species or system Mycobacterium tuberculosis; settings: in vivo
[4] = tested on: Mtb following exposure to NS; settings: cited from earlier work
[5] = tested on: rel Comp; set-up: species or system Mycobacterium tuberculosis; settings: in vivo
[6] = tested on: rel Comp (relMtb-complemented strain); type: cell-based, Mycobacterium tuberculosis
[7] = tested on: WT Mtb H37Rv; type: cell-based, Mycobacterium tuberculosis
[8] = tested on: Δrel (H37Rv deficient in Rv2583c/relMtb); type: cell-based, Mycobacterium tuberculosis; settings: nutrient-rich broth
[9] = tested on: nutrient-starved empty vector control (CDC1551); type: cell-based, Mycobacterium tuberculosis; settings: INH 15.36 μg/ml, 7 days of exposure
[10] = tested on: relMtb-deficient Mtb; settings: nutrient-rich broth; cited from earlier work

## Nc1nc2c(ncn2[C@@H]2O[C@H](COP(=O)(O)OP(=O)(O)OP(=O)(O)OP(=O)(O)OC[C@H]3O[C@@H](n4cnc5c(N)ncnc54)[C@H](O)[C@@H]3O)[C@@H](O)[C@H]2O)c(=O)[nH]1 [AP4G]
[1]
  IC50: 1.8 mM

## Nc1nc2c(ncn2[C@@H]2O[C@H](COP(=O)(O)OP(=O)(O)OP(=O)(O)O)C[C@H]2O)c(=O)[nH]1 [3′-dGTP]
[1]
  IC50: 4 mM

## NNC(=O)c1ccncc1 [INH, isoniazid]
[2]
  reduction of lung bacillary burden relative to the start of treatment: 0.11 log10
[3]
  bacilli killed in the lungs during 2 weeks of treatment: 2.03 log10
[4]
  fold increase in the MBC of INH: > 100 fold
[5]
  reduction of lung bacterial load: 0.48 log10
[6]; 7 days of NS versus nutrient-rich broth
  fold increase of MBC of INH: 512 fold
[6]; 7 days of NS, in the presence of 4 μM X9
  fold decrease of MBC of INH: 16 fold
[6]; nutrient-rich broth
  MBC of INH (concentration required to kill 99%): 0.06 µg/mL
[7]
  MBC of INH (concentration required to kill 99%): 0.06 µg/mL
  fold decrease of MBC of INH: 16 fold
  fold increase of MBC of INH: 512 fold
[8]
  MBC of INH (concentration required to kill 99%): 0.06 µg/mL
[9]
  mean reduction of bacterial density (CFU/ml): 1.43 log10 CFU
[10]
  MIC against relMtb-deficient Mtb compared with the WT strain: the same as that against the WT strain

## Nc1ncnc2c1ncn2[C@@H]1O[C@H](COP(=O)(O)CP(=O)(O)OP(=O)(O)O)[C@@H](O)[C@H]1O [AMPCPP, α,β-methylene analogue of ATP]
[1]
  IC50: 6.2 mM

## CO[C@H]1/C=C/O[C@@]2(C)Oc3c(C)c(O)c4c(O)c(c(/C=N/N5CCN(C)CC5)c(O)c4c3C2=O)NC(=O)/C(C)=C\C=C\[C@H](C)[C@H](O)[C@@H](C)[C@@H](O)[C@@H](C)[C@H](OC(C)=O)[C@@H]1C [rifampin]
[10]
  MIC against relMtb-deficient Mtb compared with the WT strain: the same as that against the WT strain
